Experimental data taken from PubChem BioAssay AID588641 (Sanford-Burnham Center for Chemical Genomics, 2011).
The source made the active and inactive calls. No rule for the calls is given here.

Biological target: alkaline phosphatase, placental type (human)
Test: inhibitors of placental alkaline phosphatase – biochemical, human PLAP isozyme, set 2, selectivity assay for mouse IAP inhibitor project, SAR follow-up (AID 588641)
Details: purified human placental alkaline phosphatase, enzyme activity

Row | Structure (SMILES) | IC50
1 | O=C(CCS(=O)(=O)Nc1ccc2[nH]c(=O)oc2c1)NCc1cccc(Cl)c1 | > 100 µM (inactive)
2 | O=C(CCCNS(=O)(=O)c1ccc2[nH]c(=O)oc2c1)NCc1cccc(F)c1 | > 100 µM (inactive)
3 | COc1ccc(NC(=O)CCNS(=O)(=O)c2ccc3ccccc3c2)cc1OC | > 100 µM (inactive)
4 | COc1ccc(CCNC(=O)CCCNS(=O)(=O)c2ccc3[nH]c(=O)oc3c2)cc1OC | > 100 µM (inactive)
5 | O=C(N/N=C/c1ccccc1F)c1ccc(O)cc1 | > 100 µM (inactive)
6 | COc1cc(C(=O)N/N=C/c2c(F)cccc2Cl)cc(OC)c1OC | > 100 µM (inactive)
7 | COc1cccc(NC(=O)CCNS(=O)(=O)c2ccc3c(c2)oc(=O)n3C)c1 | > 100 µM (inactive)
8 | O=C(CCS(=O)(=O)Nc1ccc2[nH]c(=O)oc2c1)NCc1ccccc1Cl | > 100 µM (inactive)
9 | O=C(N/N=C/c1ccc(Br)cc1F)c1cc(O)ccc1O | > 100 µM (inactive)
10 | O=C(NN=Cc1ccccc1F)c1ccc(O)cc1 | > 100 µM (inactive)
11 | C/C(=N\NC(=O)c1cc(O)c(O)c(O)c1)c1ccc(O)cc1O | > 100 µM (inactive)
12 | O=C(N/N=C/c1ccc(F)c(Br)c1)c1cc(O)c(O)c(O)c1 | > 100 µM (inactive)
13 | Cc1ccc(C)c(NC(=O)CCNS(=O)(=O)c2ccc3[nH]c(=O)oc3c2)c1 | > 100 µM (inactive)
14 | Cc1ccc(NC(=O)CCNS(=O)(=O)c2ccc3[nH]c(=O)oc3c2)cc1C | > 100 µM (inactive)
15 | COc1ccc(CNS(=O)(=O)c2ccc3[nH]c(=O)oc3c2)cc1 | > 100 µM (inactive)
16 | Cc1ccccc1CNC(=O)CCCNS(=O)(=O)c1ccc2[nH]c(=O)oc2c1 | > 100 µM (inactive)
17 | O=C(CCNS(=O)(=O)c1ccc2[nH]c(=O)oc2c1)NCc1cccc(F)c1 | > 100 µM (inactive)
18 | O=C(N/N=C/c1ccccc1C(F)(F)F)c1cc(O)c(O)c(O)c1 | > 100 µM (inactive)
19 | Cc1ccc(NC(=O)CCNS(=O)(=O)c2ccc3c(c2)oc(=O)n3C)cc1C | > 100 µM (inactive)
20 | CCOc1ccc(CNC(=O)C2CCCN(S(=O)(=O)c3ccc4[nH]c(=O)oc4c3)C2)cc1OC (centres undefined) | > 100 µM (inactive)
21 | CC(C)Oc1ccc(CNC(=O)C2CCCN(S(=O)(=O)c3ccc4[nH]c(=O)oc4c3)C2)cc1 (centres undefined) | > 100 µM (inactive)
22 | COc1ccc(NC(=O)CCNS(=O)(=O)c2ccc3[nH]c(=O)oc3c2)cc1OC | > 100 µM (inactive)
23 | O=C(N/N=C/c1ccccc1Cl)c1cc(O)c(O)c(O)c1 | > 100 µM (inactive)
24 | N#Cc1ccc(NS(=O)(=O)c2ccc3[nH]c(=O)oc3c2)cc1 | > 100 µM (inactive)
25 | O=C(N/N=C/c1c(Cl)cccc1Cl)c1cc(O)c(O)c(O)c1 | > 100 µM (inactive)
26 | O=C(N/N=C/c1ccc(Cl)c(Cl)c1)c1cc(O)c(O)c(O)c1 | > 100 µM (inactive)
27 | COc1ccc(CNC(=O)CCNS(=O)(=O)c2ccc3ccccc3c2)c(OC)c1 | > 100 µM (inactive)
28 | COc1ccc(C(=O)N/N=C/c2ccccc2F)cc1 | > 100 µM (inactive)
29 | CCOc1cc(C(=O)N/N=C/c2ccccc2F)cc(OCC)c1OCC | > 100 µM (inactive)
